According to EP0218400A1, “Assay methods for chemotherapeutic agents” (DAMON BIOTECH, INC., priority 1985, dated 1987):
Like-named read-outs stand apart in the source and are kept apart here.

Key:
[1] = tested on: Human T cell lymphoma (MOLT-4) cells; assay: In vitro drug pretreatment of encapsulated cells, then growth in the peritoneal cavity of mice; assay type: in vivo
Description: The encapsulated tumors are preferably incubated at 37° C in medium for 1 to 2 hours. A 25 percent (v/v) suspension can then be prepared (preferably without bovine serum). The suspension can be inoculated in the peritoneal cavity of the host animal (i.e., with a 16 gauge needle).
(§1) In the experiments that follow, the drugs and other agents tested were administered to the host animal by injection at the various times called for in the protocol being tested. At various periods after treatment, the mice were killed by cervical dislocation. The peritoneal cavity of each mouse was washed with PBS or medium and floating microcapsules were aspirated using a large bore plastic Pasteur pipette. Microcapsules were transferred to 15 ml tubes and washed 3 to 4 times with PBS to remove host peritoneal cells. The washed microcapsules were aspirated into 1 ml serological pipettes, allowed to sediment, and the volume of packed microcapsules was determined. Microcapsules were then transferred to a glas dounce homogenizer (7 ml volume) and disrupted with 3 strokes of an A-tolerance plumger. Cells suspensions were filtered through nylon mesh to remove the disrupted membranes. The suspensions containing tumor cells were centrifuged and the pellet was resuspended in 0.25 to 0.5 ml of complete medium. After mixing equal volumes of cell suspension and trypan blue, viable cell counts were determined using a hemocytometer.
(§2) The number of tumor cells per 1 ml of packed microcapsules was determined as follows: a = ? where b = total number of tumor cells in the suspension, and c = total volume of microcapsules used for the preparation of this suspension.
(§3) By comparing the number of tumor cells in 1 ml of microcapsules derived from non-treated and drug-treated mice, the percent inhibition of tumor cell growth was calculated: [formula] where ac = number of tumor cells from the non-treated control microcapsules, and ae = number of tumor cells from the drug treated microcapsules.
Human T cell lymphoma (MOLT-4) cells were encapsulated according to the procedures described above and incubated in vitro in RPMI I640 medium supplemented with 10 percent fetal calf serum, glutamine and antibiotics for one hour of 37°C. During incubation they were exposed to various concentrations of 1,3-B (2-chloroethyl)-1-nitrosourea (BCNU), 5-fluorouracil (5-FU) and adriamycin. The microcapsules were then washed and implanted into the peritoneal cavity (i.p.) of C57BL/6 mice (Animal Production Area NCI-Frederick Cancer Research Facility) using #18-14 needles. After seven days the mice were sacrificed and their peritoneal cavities were washed with PBS and aspirated to collect the microcapsules in a Pasteur pipette. The microcapsules were washed several times from the host peritoneal cells. The microcapsules from the individual mice were counted by transferring them into wells of a 96 well microplate. Using an inverted microscope, the numbers of microcapsules in each well were counted. Each well was washed out and microcapsules were transferred into the glass homogenizer.
Microcapsules were then disrupted, and the suspension was filtered, centrifugated and reconstituted with PBS. The concentration and total number of cells were counted using a hemocytometer.

[2] = tested on: MOLT-4 human lymphoma cells; assay: In vivo sensitivity of encapsulated MOLT-4 cells in nude mice, NCI schedule; conditions: Adriamycin 6 mg/kg, 15 days after transplantation
Description: as §1, §2, §3
In the next experiment various drugs were administered in vivo according to schedules and doses typically used for screening antitumor effects of the drugs at the National Cancer Institute, Developmental Therapeutics program.
MOLT-4 human lymphoma cells were encapsulated and transplanted into peritoneum of nude mice. Doses of various drugs were applied i.v. at 1, 5 and 9 days after tumor cell transplantation.

[3] = tested on: human colon adenocarcinoma (HT-29) cells; assay: In vivo growth of encapsulated HT-29 cells in C57BL/6 mice
Description: as §1, §2, §3
A second human cancer cell line was also used to further analyze in vivo effects of different drugs on the growth of tumors. Encapsulated human colon adenocarcinoma (HT-29) cells were again transplanted into C57BL/6 mice and various drugs were administered after 3 days either by intravenous or by intraperitoneal injection. Animals were sacrificed after 4 days and number of cells per capsule were counted to calculate inhibition rates for the various treatment procedures. […] In fact, 5-FU is a preferred chemotherapeutic agent for patients with gastrointestinal malignancies.

human Melanoma LOX cells = assay: In vivo susceptibility of encapsulated LOX melanoma cells in nude mice; conditions: for sensitivity of encapsulated LOX cells to the treatment (in words): i.v. days 1, 5, 9; for No. of viable tumor cells per 1 ml. of capsules: i.v. days 1, 5, 9, Adriamycin 6, BCNU 20, CY 100, 5-Fu 60 mg/kg
Description: as §1, §2, §3
In this series of experiments, cells of a fourth human cancer type, Melanoma LOX cells, were used. LOX cells have recently been proposed as the model for experimental treatment at the NCI Development Therapeutics Program. Following i.p. inoculation of the suspension of LOX Melanoma cells into nude mice, various drugs were administered i.v. and survival of the treated mice was determined (Schoemaker et al., Proceeding American Association for Cancer Research, 26, 1302, 1985) (mice transplanted with the non-encapsulated tumor cells were considered tumor-free if they survived during 3 months of observation). In parallel experiments encapsulated LOX Melanoma cells were transferred into nude mice and drugs were inoculated i.v. 1, 5 and 9 days at the dose and schedule utilized by the Dr. Shoemaker's procedure.

LOX Melanoma cells = conditions: i.v.; Adriamycin 6, BCNU 20, CY 100, 5-Fu 60 mg/kg; survival during 3 months of observation; nude mice; cited from earlier work
MOLT-4 lymphoma cells = assay: In vivo inhibition of encapsulated Molt-4 lymphoma growth in C57BL/6 mice; parameters: species or system human
Description: as §1, §2, §3
MOLT-4 lymphoma cells were also used in an in vivo assay. As before, the MOLT-4 cells were encapsulated and transplanted i.p. into C57BL/6 mice. On day 1 following the transplantation of the encapsulated cells, the mice were treated i.v. intravenous (i.v.) with BCNU, adriamycin or cyclophosphamide (CY). This approach allowed the testing of cyclophosphamide (CY) which is inefficient in vitro because it must be metabolized to obtain an active cytotoxic derivative. Ten days after transplantation, the encapsulated cells were retrieved and the tumor cells contained therein were counted. […]

[4] = tested on: human lung carcinoma A549 cells; assay: In vivo susceptibility of encapsulated A549 cells; conditions: i.v. days 2, 5, 9; for No. of tumor cells per 1 ml of capsules / percent Inhibition: Adriamycin 6, BCNU 20, CY 100 mg/kg
Description: as §1, §2, §3
The sensitivity of human lung carcinoma A549 cells to the drugs was assessed 12 and 14 days after transplantation of encapsulated tumor cells. The treatments were applied i.v. 2, 5 and 9 days after microcapsule transplantation (Table 5).

Original P388 cells = assay: In vivo growth of encapsulated original P388 lymphoma cells in nude mice; conditions: for inhibition at 100 mg/kg: Mus musculus, P388, iv
Description: as §1, §2, §3
(§4) Since drug-resistance is one of the most important causes of failure in chemotherapy, it is crucial that a predictive assay be able to distinguish between effective and non-effective drugs for particular tumors. […] One day later the mice received by i.v. administration Adriamycin (6 mg/kg), Vinblastin (1 mg/kg) or Cyclophosphamide (100 mg/kg). Five days after administration some of the mice were sacrificed, the microcapsules were recovered and the numbers of tumor cells inside the capsules were determined. The remaining mice received a second administration and the microcapsules were recovered from the remaining mice 3 days afterwards. The results are shown in Table 7 and correlate well with the known characteristics of P388 cell line and its variant.

P388 Resistant Cells = assay: In vivo growth of encapsulated adriamycin-resistant P388 lymphoma cells in nude mice; conditions: for inhibition at 100 mg/kg: Mus musculus, P388, iv
Description: as §1, §2, §3, §4

[5] = 25 µg/ml in vitro for one hour, then 7 days i.p. in C57BL/6 mice
[6] = 100 µg/ml in vitro for one hour, then 7 days i.p. in C57BL/6 mice
[7] = Mus musculus, MOLT-4, iv, 360 h, i.v. days 1, 5, 9, Cyclophosphamide 100 mg/kg, 5-Fu 60 mg/kg, nude mice
[8] = i.v. days 1, 5, 9, Cyclophosphamide 100 mg/kg, 5-Fu 60 mg/kg, nude mice
[9] = Mus musculus, HT-29, ip, i.p. 3 days after transplantation, 5-Fu 150 mg/kg, CY 250 mg/kg, Adriamycin 20 mg/kg, 4 days
[10] = i.p. 3 days after transplantation, 5-Fu 150 mg/kg, CY 250 mg/kg, Adriamycin 20 mg/kg, 4 days
[11] = Mus musculus, MOLT-4, iv, i.v. on day 1, Adriamycin 10 mg/kg, BCNU 100 mg/kg, CY 200 mg/kg, capsules retrieved ten days after transplantation
[12] = i.v. on day 1, Adriamycin 10 mg/kg, BCNU 100 mg/kg, CY 200 mg/kg, capsules retrieved ten days after transplantation
[13] = 5 + 3 days after treatment (3 days after second administration), Adriamycin 6, Vinblastin 1, Cyclophosphamide 100 mg/kg i.v.
[14] = 5 days after treatment, i.v. one day after inoculation, Adriamycin 6, Vinblastin 1, Cyclophosphamide 100 mg/kg
[15] = 72 h, 5 + 3 days after treatment (3 days after second administration), Adriamycin 6, Vinblastin 1, Cyclophosphamide 100 mg/kg i.v.

Row | Compound | No. of tumor cells per capsule [1, 5] | No. of tumor cells per capsule [1, 6] | No of viable tumor cells per 1 ml of capsules [2, 8] | No. of cells per capsule [3, 10] | Total No. of tumor cells [3, 10] | sensitivity of encapsulated LOX cells to the treatment (in words) (human Melanoma LOX cells) | No. of viable tumor cells per 1 ml. of capsules (human Melanoma LOX cells) | % survived mice transplanted with nonencapsulated tumor cells (LOX Melanoma cells) | No. of cells per capsule (MOLT-4 lymphoma cells; [12]) | Total No. of tumor cells (MOLT-4 lymphoma cells; [12]) | No. of tumor cells per 1 ml of capsules ([4]; 12 days after transplantation) | percent Inhibition ([4]; 12 days after transplantation) | No. of tumor cells per 1 ml of capsules ([4]; 14 days after transplantation) | percent Inhibition ([4]; 14 days after transplantation) | No. cells/ml (Original P388 cells; [13]) | No. cells/ml (Original P388 cells; [14]) | No. cells/ml (P388 Resistant Cells; [13]) | No. cells/ml (P388 Resistant Cells; [14]) | also measured
1 | O=c1[nH]cc(F)c(=O)[nH]1 [5-Fu, 5-fluorouracil] | 3 x 10^3 | 10^2 | 41.0 x 10^6 | 0.6 x 10^4 | 0.6 x 10^6 | least efficient | 29 x 10^5 | 0% | – | – | – | – | – | – | – | – | – | – | inhibition at 25 µg/mL ([1]; Mus musculus, MOLT-4, ip, 25 µg/ml in vitro for one hour, then 7 days i.p. in C57BL/6 mice, read-out: % Inhibition): 40%; inhibition at 100 µg/mL ([1]; Mus musculus, MOLT-4, ip, 100 µg/ml in vitro for one hour, then 7 days i.p. in C57BL/6 mice, read-out: % Inhibition): 98%; inhibition of tumor cell proliferation (in words) ([2]; 5-FU 60 mg/kg i.v. days 1, 5, 9): significantly less efficient; inhibition at 60 mg/kg [2, 7]: 30%; inhibition at 150 mg/kg [3, 9]: 70%; sensitivity of encapsulated HT-29 cells (in words) ([3]; in vivo): more sensitive to 5-FU than to the other drugs tested
2 | O=NN(CCCl)C(=O)NCCCl [BCNU, 1,3-B (2-chloroethyl)-1-nitrosourea] | 1 x 10^4 | 0.1 x 10^4 | – | – | – | most sensitive | 2 x 10^5 | 50% | 1222 | 27 x 10^4 | 7.0 x 10^5 | 88% | 15.7 x 10^5 | 81% | – | – | – | – | No. of tumor cells per capsule ([1]; 6 µg/ml in vitro for one hour, then 7 days i.p. in C57BL/6 mice): 1 x 10^4; inhibition at 6 µg/mL ([1]; Mus musculus, MOLT-4, ip): 86%; inhibition at 25 µg/mL ([1]; Mus musculus, MOLT-4, ip): 86%; inhibition at 100 µg/mL ([1]; Mus musculus, MOLT-4, ip): 98%; inhibition at 100 mg/kg (MOLT-4 lymphoma cells; [11]): 55%; reduction of the numbers of tumor cells (in words) [4]: more efficient in this respect than CY
3 | O=P1(N(CCCl)CCCl)NCCCO1 (centres unmarked) [CY, cyclophosphamide] | – | – | 1.9 x 10^6 | 1.6 x 10^4 | 1.1 x 10^6 | most sensitive | 0.7 x 10^5 | 40% | 171 | 10 x 10^4 | 13.5 x 10^5 | 78% | 39.0 x 10^5 | 53% | 1.3 x 10^6 | 0.4 x 10^6 | 1.1 x 10^6 | 0.4 x 10^6 | inhibition at 200 mg/kg (MOLT-4 lymphoma cells; [11]): 93.7%; reduction of the number of viable tumor cells in the capsules (in words) (MOLT-4 lymphoma cells; i.v. on day 1, ten days after transplantation): more effective than BCNU; inhibition at 100 mg/kg [2, 7]: 97%; inhibition at 250 mg/kg [3, 9]: 20%; inhibition at 100 mg/kg (Original P388 cells; [15]): 97%; inhibition at 100 mg/kg (Original P388 cells; [14]): 98%; inhibition at 100 mg/kg (P388 Resistant Cells; [15]): 96%; inhibition at 100 mg/kg (P388 Resistant Cells; Cyclophosphamide 100 mg/kg i.v., both time points): 96 to 98%; inhibition at 100 mg/kg (P388 Resistant Cells; [14]): 98%
4 | CCC1(O)CC2CN(CCc3c([nH]c4ccccc34)C(C(=O)OC)(c3cc4c(cc3OC)N(C)C3C(O)(C(=O)OC)C(OC(C)=O)C5(CC)C=CCN6CCC43C65)C2)C1 (centres unmarked) [Vinblastin] | – | – | – | – | – | – | – | – | – | – | – | – | – | – | 6 x 10^6 | 9 x 10^6 | 23 x 10^6 | 15 x 10^6 | % Inhibition (Original P388 cells; [13]): 89%; % Inhibition (Original P388 cells; [14]): 60%; % Inhibition (P388 Resistant Cells; [13]): 21%; % Inhibition (P388 Resistant Cells; [14]): 12%; inhibiting the growth of the drug-resistant variant (in words) (P388 Resistant Cells; Adriamycin 6 mg/kg, Vinblastin 1 mg/kg i.v.): Neither Adriamycin nor Vinblastin in the doses administered was effective
